Results on 13 molecules are retold here after patent publication US20250320471A1, “Method for Producing Compounds, Method for Producing Compound Library, Compound Library, and Screening Method” (The University of Tokyo, priority 2021, published 2025).

The Km is the concentration of substrate that gives half-maximal velocity.

In one data set the test system is Vib-PT. Particulars: Aromatic C5 O-prenylation; cited from earlier work.
The target of the next data set is T1, FtmPT2 (Aspergillus fumigatus, UniProt Q4WAX1).
T1 sequence (Q4WAX1 1-427): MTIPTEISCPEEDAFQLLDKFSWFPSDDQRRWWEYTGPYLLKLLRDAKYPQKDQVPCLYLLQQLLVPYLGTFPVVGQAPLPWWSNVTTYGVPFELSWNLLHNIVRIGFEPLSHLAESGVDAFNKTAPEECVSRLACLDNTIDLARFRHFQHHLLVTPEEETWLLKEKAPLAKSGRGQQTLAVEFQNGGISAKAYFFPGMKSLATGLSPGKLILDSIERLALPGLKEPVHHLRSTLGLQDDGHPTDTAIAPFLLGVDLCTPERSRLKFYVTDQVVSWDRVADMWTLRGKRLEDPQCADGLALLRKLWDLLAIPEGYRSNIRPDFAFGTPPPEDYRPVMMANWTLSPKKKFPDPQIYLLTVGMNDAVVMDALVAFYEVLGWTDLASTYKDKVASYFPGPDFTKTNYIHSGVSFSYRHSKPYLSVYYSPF
Particulars: Aromatic C5 N-prenylation; cited from earlier work.

Data set [1] concerns LimF. Briefly: LimF prenylation of His monomers and His-containing dipeptides. It counts as biochemical, Limnothrix sp. CACIAM 69d. The following applies: prenyl group donor GPP; 100 μM LimF, 20 hours. As to the method:
The optimization conditions were as follows: 1 mM GPP, 40 mM MgCl2, 1 mM dithiothreitol (DTT), pH 7.2, and reaction temperature 25° C. The reaction conditions described above were used below except where otherwise stated.
• A reaction was performed for 20 hours with 100 μM LimF.
Furthermore, when a prenylation reaction facilitated by 20 μM LimF was applied not only to Ac-AH-NH2, but also to various His-containing dipeptides, it became clear that a His prenylation reaction facilitated by LimF progressed for various His-containing dipeptides (FIG. 6).

Data set [2] concerns LimF. Briefly: His-prenylation of low molecular weight compounds, peptides and proteins by LimF. Format: biochemical, Limnothrix sp. CACIAM 69d. Particulars: 125 μM substrate, 100 μM LimF, 2 mM GPP, 20 hours, standard conditions. From the text:
Next, various low molecular weight compounds, peptides, and proteins, including various compounds that have already been approved as pharmaceuticals, were subjected to His-prenylation facilitated by LimF.

Another data set concerns the target T2, GLP1R (Homo sapiens, UniProt P43220).
T2 construct: host or cells: CHO-K1
Briefly: cAMP production activation test (cAMP Hunter eXpress GLP1R CHO-K1 GPCR assay kit). Particulars: GLP1R CHO-K1 cells. Format: cell-based. As to the method: The concentration range of the used peptides was from 0.33 μM to 20 nM.

A short description of the next data set: Serum stability test. Particulars: 5 μM peptide in human serum at 37° C.
The next data set concerns the target DPP-4 (Homo sapiens, UniProt P27487). Kind of data set: DPP-4 digestion test. The following applies: 5 μM peptide, Tris-Cl pH 8.0, 2.5 ng/L DPP-4, 37° C.
Data set [3] relates to LynF. The following applies: Tyr C5 O-prenylation; cited from earlier work.
The test system of data set [4] is PagF. The following applies: Tyr C5 O-prenylation; cited from earlier work.
For data set [5], the system named is LimF. Briefly: Prenylation of high molecular weight proteins by LimF (MALDI-TOF-MS). It counts as biochemical, Limnothrix sp. CACIAM 69d. Particulars: 10 μM protein, 10 μM LimF, 2 mM GPP, 20 hours. As to the method: Moreover, His-prenylation by LimF was also performed for two types of high molecular weight proteins (acetylated bovine-derived albumin (Ac-BSA (Wako Pure Chemical Industries)) and horse-derived glutathione-S-transferase (GST (Sigma-Aldrich Japan))). Specifically, 10 μM Ac-BSA or 10 μM GST was reacted for 20 hours in the presence of 10 μM LimF and 2 mM GPP under previously optimized standard conditions. After desalting the reaction solution after the reaction by solid phase extraction (SPE C-TIP (Nikkyo Technos)), using sinapinic acid as a matrix, analysis was performed using a matrix-assisted laser desorption ionization-time-of-flight mass spectrometer (MALDI-TOF-MS, ultrafleXtreme manufactured by Bruker Daltonics).

The subject of data set [6] is LynF. The following applies: Tyr C5 O-prenylation; cited from earlier work. This is another data set of the same source.
Data set [7] concerns PagF. The following applies: Tyr C5 O-prenylation; cited from earlier work. The source holds these as a separate data set.
Another data set concerns AcyF. The following applies: Trp C5 N-prenylation; cited from earlier work.
In a further data set the target is T3, bcLimE2.
T3 chain: RYPHEEIP

Another data set has as its target T4, teR6-H5A.
T4 chain: FRGNATYIPC

Where two headings read alike, the source gives them in different places. Some results are limits rather than exact numbers.

T2 sequence (P43220 24-463): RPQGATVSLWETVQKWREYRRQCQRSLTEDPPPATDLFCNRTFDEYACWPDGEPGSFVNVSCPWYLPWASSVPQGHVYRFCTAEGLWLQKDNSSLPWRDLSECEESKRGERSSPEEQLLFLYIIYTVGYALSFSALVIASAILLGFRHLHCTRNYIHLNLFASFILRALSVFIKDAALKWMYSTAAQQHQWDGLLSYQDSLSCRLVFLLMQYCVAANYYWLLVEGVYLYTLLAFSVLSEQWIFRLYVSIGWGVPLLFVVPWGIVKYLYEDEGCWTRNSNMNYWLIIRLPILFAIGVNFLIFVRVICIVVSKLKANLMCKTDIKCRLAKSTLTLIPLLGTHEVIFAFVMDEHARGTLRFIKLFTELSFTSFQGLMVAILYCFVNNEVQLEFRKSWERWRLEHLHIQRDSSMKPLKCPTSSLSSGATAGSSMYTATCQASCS
Chain of DPP-4 (P27487 whole entry, species assumed): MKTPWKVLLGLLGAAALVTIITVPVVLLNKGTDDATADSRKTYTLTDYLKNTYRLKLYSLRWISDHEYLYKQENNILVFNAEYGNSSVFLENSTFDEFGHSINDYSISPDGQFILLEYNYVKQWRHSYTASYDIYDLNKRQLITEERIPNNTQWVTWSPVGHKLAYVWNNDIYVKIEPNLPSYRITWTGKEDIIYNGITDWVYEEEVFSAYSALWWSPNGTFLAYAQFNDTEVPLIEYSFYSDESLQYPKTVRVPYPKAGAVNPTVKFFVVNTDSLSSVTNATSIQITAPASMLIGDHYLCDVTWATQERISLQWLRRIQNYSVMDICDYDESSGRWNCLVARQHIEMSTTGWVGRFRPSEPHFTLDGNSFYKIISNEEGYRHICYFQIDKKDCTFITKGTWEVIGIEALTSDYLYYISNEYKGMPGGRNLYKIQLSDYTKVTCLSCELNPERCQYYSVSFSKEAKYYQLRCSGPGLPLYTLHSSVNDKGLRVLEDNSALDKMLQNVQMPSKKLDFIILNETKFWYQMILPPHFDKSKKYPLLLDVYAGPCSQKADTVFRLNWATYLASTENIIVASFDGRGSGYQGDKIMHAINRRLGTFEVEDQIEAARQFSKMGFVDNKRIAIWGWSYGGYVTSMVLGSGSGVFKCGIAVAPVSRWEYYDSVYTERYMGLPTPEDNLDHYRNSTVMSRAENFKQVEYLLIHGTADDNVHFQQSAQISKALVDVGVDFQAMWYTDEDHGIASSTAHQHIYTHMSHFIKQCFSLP
Method for DPP-4: After various incubation times, a sample of 4 μL was taken from the reaction system, and the reaction was stopped by adding 4 times the amount (16 L) of a 1% TFA-aqueous solution. After centrifugation at 13,000 rpm for 5 minutes, 1 μL of the supernatant was measured by LC/MS, and the amount of each remaining peptide was quantified.
Method for Serum stability test: After various incubation times, a sample of 4 μL was taken from the reaction system, and the reaction was stopped by mixing with an equal amount (4 L) of methanol. After centrifugation at 13,000 rpm for 5 minutes, the supernatant was collected, and after adding 4 times the amount of 1% TFA-aqueous solution, centrifugation was performed for an additional 5 minutes. 1 μL of the obtained supernatant was measured by LC/MS, and the amount of each remaining peptide was quantified.

Consider `OCc1ccc(O)cc1` [4-hydroxy-benzenemethanol], for which, in the data set with Vib-PT, the Kcat was 0.000783 s⁻¹ and the Km was 2.05 mM.
Turning to `COc1ccc2c3c([nH]c2c1)[C@H](C=C(C)C)N1C(=O)[C@@H]2CCCN2C(=O)[C@]1(O)[C@H]3O` [12,13-dihydroxyfumitremorgin C], at FtmPT2, the Kcat is 0.03 s⁻¹ and the Michaelis-Menten constant (Km) is 0.096 mM.
Turning to `O=C(N[C@@H](Cc1cnc[nH]1)C(=O)O)OCC1c2ccccc2-c2ccccc21` [Fmoc-His, Fmoc-His-OH], the “Modification Efficiency %” value in the data set with LimF [1] is 15.2 ± 0.8%.
Same read-out and setting: with `N[C@@H](Cc1c[nH]cn1)C(=O)O` [Free His, H-His-OH] the figure was 34.9 ± 0.7%.
Take `CC[C@H](C)[C@H](NC(=O)C(Cc1ccccc1)NC(=O)[C@H](CCC(=O)O)NCCCCN[C@@H](CCCCN)C(=O)C(=O)[C@H](C)NC(=O)C(CCC(N)=O)NC(=O)CNC(=O)C(CCC(=O)O)NC(=O)[C@H](CC(C)C)NC(=O)C(Cc1ccc(O)cc1)NC(=O)[C@H](CO)NC(=O)C(CO)NCCCCN[C@H](C(=O)C(=O)[C@H](CC(N)=O)NC(=O)C(CO)NC(=O)[C@@H](NC(=O)C(Cc1ccccc1)NC(=O)[C@@H](NC(=O)CNC(=O)[C@H](CCC(=O)O)NC(=O)C(C)NC(=O)[C@@H](N)Cc1cnc[nH]1)[C@@H](C)O)[C@@H](C)O)C(C)C)C(=O)NC(C)C(=O)N[C@@H](Cc1c[nH]c2ccccc12)C(=O)NC(CC(C)C)C(=O)N[C@H](C(=O)NC(CCCCN)C(=O)NCC(=O)C(=O)[C@H](CCCNC(=N)N)NN)C(C)C` (stereo partly shown) [GLP-1, HAEGTFTSDVSSYLEGGAAKEFIAWLVKGR]: in the data set on LimF [2], the “His-prenylation efficiency (LC/MS)” value is recorded as 75%. Further, the “cAMP production activation ability” value on GLP1R is “strongly activated cAMP production”. For the same molecule, the “serum stability (remaining peptide by LC/MS)” value in “Serum stability test” is reported as “rapid degradation”. Besides, the “stability in DPP-4 digestion test (remaining peptide by LC/MS)” value on DPP-4 is listed as “rapid degradation”.
`CC(C)(C)OC(=O)N[C@@H](Cc1ccc(O)cc1)C(=O)O` [N-boc-L-Tyr]: in the data set with LynF [3], the Kcat was 0.0177 s⁻¹ and the Km was 14 mM. In the data set on PagF [4], the Kcat is 0.183 s⁻¹ and the Michaelis constant (Km) is 6.2 mM.
Consider Ac-AH-NH2 [Ac—AH—NH2], for which, in the data set with LimF [1], the “Modification Efficiency %” value was above 99%.
In the case of “Ac-BSA: acetylated bovine-derived albumin”, in the data set on LimF [5], the “number of prenylations by LimF (mass spectrum)” value is recorded as “two locations”.
Consider “FAEGTFTSDVSSYLEGGAAKEFIAWLVHGR [GLP-1_H7F/K34H]”, for which, at GLP1R, the “cAMP production activation ability” value was “activity comparable to that of natural GLP-1”.
As for cyclo[APMPPYP] (head-to-tail cyclized), in the data set with LynF [6], the Kcat is 0.00367 s⁻¹ and the Km is 4.2 mM.
For cyclo[INPYLYP] (head-to-tail cyclized), in the data set on PagF [7], the Kcat is 0.123 s⁻¹ and the Michaelis-Menten constant (Km) was 0.00022 mM.
“cyclo[TSQIWGSPVP] (head-to-tail cyclized)”: in the data set on AcyF, the Kcat was 0.158 s⁻¹ and the Michaelis-Menten constant (Km) was 3.32 mM.

B1: LimF (wild-type) (protein)
chain: MKKRKSSKVFKSTIAPEEKLRYIGNHKQAFDIEPLYPLALFEEFVATTGDCIIECSGKIKQDQLYPARIDLQFSDKHHFHNIHTSIDFLKRAASRTDVNLNLDILATFLAGNFDYSKVQNILAGIDLRQNLGESKLKLFIRIGDYPAKMAVAKHLCNITPESEAMLRSDTLHIGFDFYLDGRSAIELYPELKKDEFNHPFIYNQLKTILSPEALKPLPLCNLFGIGLSPANEANVLYYHLENIEDFLSYFPINDTARRVHDFYLQQEGSRRMWVALSESEMKAGRINNVNLYYSKAFTSQNP
For the molecule B1, the Km (mM), steady-state kinetics of His-prenylation with GPP with bcLimE2 came to 0.31 mM. Also, the Km (mM), steady-state kinetics of Tyr-prenylation with GPP in the data set with teR6-H5A came to 7.3 mM.
